Columns and labels:
Format in all cases: cell-based
[1] = system: human red blood cell (RBC); assay: Human RBC survival in vitro in RPMI 1640, viable/dead cells by flow cytometry (FSC/SSC); settings: for RBC survival as compared to RBCs cultured in the presence of buffer only: 7 days at 37° C., 1, 10, 100 μM tested (FIG. 13); for protecting effect on RBCs (survival versus vehicle control): 100 μM, RPMI 1640
Procedure: RBCs were incubated in vitro at 37° C., and cells were analyzed by flow cytometry for assessment of the relative proportions of dead and viable cells. Forward scatter (FSC)/side scatter (SSC) dot plots of RBCs incubated in the presence or absence of 5-HT (100 μM) are shown in (A) to (E) for the indicated time points. Two main regions of analysis are set, R1 (left box) and R2 (right box), corresponding to dead and viable RBCs, respectively. The proportion of viable cells remaining at each time-point is indicated next to the R2 region (upper right in the dot plots). (F) Typical concentration-dependent effects of 5-HT (0-100 μM) on RBCs incubated for different periods of time;
RBCs were incubated for various lengths of time in the RPMI 1640 medium at 37° C. (A), at room temperature (21 to 23° C.) (B), or at 4° C. (C). 5-HT (100 μM, black circles) or vehicle control (white circles) was added before incubation at Day 0, and cell viability was assessed by flow cytometry at several times as indicated;
RBCs were incubated for 7 days at 37° C. in the presence or absence of different concentrations of the indicated indole compounds (white bars =1 μM; grey bars=10 μM; black bars:100 μM). As a control, RBCs were incubated in the presence of the appropriate buffer (without the compounds). RBCs survival in the presence of a given compound is expressed as the percentage of survival relative to the control.
Red blood cells isolation. Venous blood was drawn from healthy volunteers, and RBCs were isolated by centrifugation at 800 rpm to remove platelet-rich plasma, and white blood cells. The resulting pellet of RBCs was washed three times in NaCl 0.9% by centrifugation at 3000 rpm. RBCs were incubated at 37° C., 5% CO2 in 24-well microplates at a concentration of 1x10^6 cells/ml in RPMI 1640 medium without phenol red containing HEPES/NaOH (pH 7.4) and penicillin (100 U/ml)/streptomycin ([…]).
(§1) Cell culture. Drugs [serotonin (Catalog No. H9525), melatonin (Catalog No. M5250), pindolol (Catalog No. P0778) and indomethacin (Catalog No. 18280)] were all purchased from Sigma-Aldrich. They were added at the indicated concentrations at the beginning of cell incubation (Day 0). Cells were harvested at specific time-points and analyzed by flow cytometry (FACScan™, Becton Dickinson) according to forward and side scatters (FSC and SSC, respectively). FSC is proportional to cell size, while SSC is proportional to cell complexity, which may reflect hemoglobin content of RBCs. The relative proportions of viable and dead RBCs were calculated by setting appropriate regions on the dot plots. In some experiments, RBCs were sorted according to FSC and SSC. Cell density was checked routinely by inverted light microscopy, and cell morphology was assessed by May Grünwald-Giemsa staining followed by light microscopy.

human RBCs [2] = assay: RBC density and morphology by May Grünwald-Giemsa staining and light microscopy
Procedure: (C). Cells were incubated in the presence or absence of 5-HT. The density of RBC suspension and their morphology were assessed by May Grünwald-Giemsa staining;
as §1
To evaluate the morphology of the two populations of RBCs, these cells were sorted by flow cytometry according to their FSC/SSC characteristics, and stained by the May Grünwald-Giemsa method. […] Cells with intermediate amounts of hemoglobin (between normochromic and hypochromic) were also present in the R2 region (FIG. 2, upper right panel). […] At day 7, in the absence of 5-HT, fewer cells were present, and the majority of these cells were hypochromic with cytoplasmic inclusions (FIG. 3B, left panels).

mouse RBCs = assay: Survival of mouse RBCs cultured at 37° C., flow cytometry; settings: day 1 to day 7, 0-100 μM
Procedure: Mouse RBCs were cultured at 37° C. for the indicated periods of time, in the presence of increasing concentrations of 5-HT (0-100 μM). Cell viability was assessed by flow cytometry at day 1 (A), day 2 (B), day 3 (C), day 5 (D) and day 7 (E), and the percentage of viable cells (% of cells in R2) is indicated;
as §1, with “microscopy. […]” for “microscopy.”

human RBCs [3] = assay: Survival of human RBCs cultured in AS-3 additive solution, flow cytometry; settings: 100 μM
Procedure: AS-3 is an additive solution commonly used for storage of RBCs. RBCs were incubated in home-made (A) and commercially available (B) AS-3 solution (Haemonetics, Catalog No. 0460a-00) for various lengths of time at 4° C. in the absence (white circles) or presence (100 μM, black circles) of 5-HT, and cell viability was assessed by flow cytometry at several times as indicated. The home-made AS-3 was prepared in sterile water as follows: Sodium chloride (NaCl, 2.35 g), D-Glucose (Dextrose, 5.5 g), Adenine (0.15 g), Citric Acid (0.21 g), Sodium Phosphate dibasic (Na2HPO4 anhydrous, 1.380 g) were dissolved in 500 ml of sterile water. The pH of the solution was adjusted at 7.39;
as §1, with “They were added at the indicated concentrations at the beginning of cell incubation (Day 0).” left out, “FSC is proportional to cell size, while SSC is proportional to cell complexity, which may reflect hemoglobin content of RBCs.” left out, “In some experiments, RBCs were sorted according to FSC and SSC.” left out
The effect of 5-HT on the survival of human RBCs cultured in AS-3 solution was assessed. […]

## CC(C)NCC(O)COc1cccc2[nH]ccc12 (centres unmarked) [pindolol]
[1]
  RBC survival as compared to RBCs cultured in the presence of buffer only: increased survival

## NCCc1c[nH]c2ccc(O)cc12 [5-HT, serotonin]
Human RBCs [2]; 91 days at 4° C.
  RBC morphology (normochromic / hypochromic): normochromic red blood cells are observed
Human RBCs [2]; day 7, 37° C.
  RBC morphology (normochromic / hypochromic): the majority of these cells were normochromic
Human RBCs [2]; day 7, 37° C., versus absence of 5-HT
  number of cells remaining, as judged by cell density: a greater number of cells remained
Mouse RBCs
  proportion of viable mouse RBCs versus 5-HT-free cultures: higher
Human RBCs [3]; commercially available AS-3, 4° C.
  survival of RBCs versus absence of 5-HT: increases the survival
Human RBCs [3]; home-made AS-3, 4° C.
  survival of RBCs versus absence of 5-HT: increases the survival
[1]; 0-100 μM tested, 37° C., FIG. 1F
  concentration giving optimal effect on RBC viability: 100 µM
[1]; 4° C.
  protecting effect on RBCs (survival versus vehicle control): is observed
[1]; 37° C.
  protecting effect on RBCs (survival versus vehicle control): is observed
[1]; all time-points (day 0 to 21), 37° C., 5-HT 100 μM
  percentage of viable RBCs as compared to controls without 5-HT: higher
[1]; room temperature (21-23° C.)
  protecting effect on RBCs (survival versus vehicle control): is observed

## COc1ccc2c(c1)c(CC(=O)O)c(C)n2C(=O)c1ccc(Cl)cc1 [indomethacin]
[1]
  RBC survival as compared to RBCs cultured in the presence of buffer only: increased survival

## COc1ccc2[nH]cc(CCNC(C)=O)c2c1 [melatonin]
[1]
  RBC survival as compared to RBCs cultured in the presence of buffer only: increased survival

Reference: patent US10165772B2, “Methods and compounds for increasing red blood cell survival” (priority 2008, dated 2019)
